The values that follow come from patent US9204653B2, “5-fluoro pyrimidine derivatives” (DOW AGROSCIENCES LLC, priority 2008, dated 2015).

This assay concerns Mycosphaerella graminicola; Anamorph: Septoria tritici; Bayer Code SEPTTR. Description: Leaf blotch of wheat, foliar fungicide treatment, one day protectant (1DP) or three day curative (3DC). The class given is in vivo, Septoria tritici on wheat plants (variety Yuma). The conditions noted are these: Zymoseptoria tritici, 24 h, % disease control rating, one day protectant.

By pest or weed control is commonly meant how far the test organism was held down. Higher therefore signals a strong effect.

The compound `Cc1cnc(CNc2nc(OCC(F)(F)F)ncc2F)cn1` [Compound 818] returned a pest or weed control at 50 ppm of 0 to 25% and a pest or weed control at 200 ppm of 0 to 25%. `Fc1cnc(OCc2ccc(C(F)(F)F)cc2)nc1NC1CC1` [Compound 819] yielded a pest or weed control at 200 ppm of 76 to 100%. The compound `Fc1cccc(COc2ncc(F)c(NCc3ccc(Cl)cc3)n2)c1` [Compound 820] showed a pest or weed control at 50 ppm of 26 to 50% and a pest or weed control at 200 ppm of 76 to 100%. Turning to `COc1ccccc1COc1ncc(F)c(NC2CC2)n1` [Compound 821], the pest or weed control at 200 ppm fell in the range of 76 to 100%. Consider `Cc1cnc(CNc2nc(OCc3cccs3)ncc2F)cn1` [Compound 822], for which the pest or weed control at 50 ppm lay in the range of 26 to 50% and the pest or weed control at 200 ppm fell in the range of 76 to 100%. `COc1ccc(COc2ncc(F)c(NC3CC3)n2)cc1` [Compound 823] had a pest or weed control at 200 ppm of 76 to 100%. `Fc1cccc(COc2ncc(F)c(NCc3ccccc3F)n2)c1` [Compound 824] registered a pest or weed control at 50 ppm of 76 to 100% and a pest or weed control at 200 ppm of 76 to 100%. In turn, `Fc1ccc(COc2ncc(F)c(NCc3ccccc3F)n2)cc1F` [Compound 825] registered a pest or weed control at 50 ppm of 51 to 75% and a pest or weed control at 200 ppm of 76 to 100%. With `Fc1cnc(OCc2cccc(C(F)(F)F)c2)nc1NC1CC1` [Compound 826], the pest or weed control at 200 ppm is 76 to 100%. The compound `Fc1cnc(OCc2ccco2)nc1NCCc1ccccc1` [Compound 827] yielded a pest or weed control at 50 ppm of 0 to 25% and a pest or weed control at 200 ppm of 26 to 50%. The corresponding values for `Fc1cnc(OCCc2ccccc2)nc1N1CCOCC1` [Compound 828] are 0 to 25% and 0 to 25%.

For `Fc1cnc(OCc2ccc(OC(F)(F)F)cc2)nc1NCc1ccc(Cl)cc1` [Compound 829], the pest or weed control at 50 ppm lay within 26 to 50% and the pest or weed control at 200 ppm is 76 to 100%.

As to `Fc1cnc(OCC(F)(F)F)nc1NCc1cccs1` [Compound 830], the pest or weed control at 50 ppm was in the range of 0 to 25% and the pest or weed control at 200 ppm is 0 to 25%. The compound `Fc1cnc(OCc2cccs2)nc1NCc1cccs1` [Compound 831] had a pest or weed control at 50 ppm of 51 to 75% and a pest or weed control at 200 ppm of 76 to 100%.

`O=c1nc(NCc2ccccc2F)c(F)c[nH]1` [Compound 832] returned a pest or weed control at 50 ppm of 0 to 25% and a pest or weed control at 200 ppm of 0 to 25%. `Fc1ccc(COc2ncc(F)c(NCC(F)(F)F)n2)cc1` [Compound 833] came in with a pest or weed control at 50 ppm of 26 to 50% and a pest or weed control at 200 ppm of 51 to 75%. Compound `Fc1ccc(COc2ncc(F)c(NC3CC3)n2)c(F)c1` [Compound 834] gave a pest or weed control at 200 ppm of 76 to 100%. As to `Fc1cnc(OCc2c(Cl)cccc2Cl)nc1NCc1cccs1` [Compound 835], the pest or weed control at 200 ppm was in the range of 76 to 100%.

`Cc1ccc(COc2ncc(F)c(N3CCOCC3)n2)cc1` [Compound 836]: the pest or weed control at 50 ppm fell in the range of 51 to 75% and the pest or weed control at 200 ppm was 76 to 100%. The corresponding values for `Fc1cnc(OC2CCCCC2)nc1NCCc1ccccc1` [Compound 837] are 0 to 25% and 0 to 25%. The compound `Fc1cnc(OCc2ccc(Cl)cc2Cl)nc1NCc1cccs1` [Compound 838] registered a pest or weed control at 200 ppm of 76 to 100%. On the same count and under the same terms, next, `Fc1cnc(OCc2ccc3c(c2)OCO3)nc1NCc1cccs1` [Compound 839]: 76 to 100%. Compound `Fc1ccc(COc2ncc(F)c(NCc3ccc(Cl)cc3)n2)cc1` [Compound 840] yielded a pest or weed control at 50 ppm of 51 to 75% and a pest or weed control at 200 ppm of 76 to 100%. Compound `Fc1cnc(OC2CCCCC2)nc1NCc1ccc2c(c1)OCO2` [Compound 841] yielded a pest or weed control at 50 ppm of 51 to 75% and a pest or weed control at 200 ppm of 76 to 100%. For `Fc1cnc(OCc2ccc(Cl)cc2)nc1NCc1ccc2c(c1)OCO2` [Compound 842], in that order: 76 to 100% and 76 to 100%. For `Fc1cnc(OCCc2ccccc2)nc1NCc1cccs1` [Compound 843], in that order: 26 to 50% and 76 to 100%.

`Cc1ccc(COc2ncc(F)c(NCc3ccc(Cl)nc3)n2)cc1` [Compound 844] displayed a pest or weed control at 50 ppm of 76 to 100% and a pest or weed control at 200 ppm of 76 to 100%. Compound `Nc1nc(OCC2CCCCC2)ncc1F` [Compound 846] registered a pest or weed control at 50 ppm of 0 to 25% and a pest or weed control at 200 ppm of 26 to 50%. In the case of `Nc1nc(OCc2c(Cl)cccc2Cl)ncc1F` [Compound 847], the pest or weed control at 50 ppm lay within 76 to 100%.

The compound `Nc1nc(OC2CCCCC2)ncc1F` [Compound 848] came in with a pest or weed control at 50 ppm of 0 to 25% and a pest or weed control at 200 ppm of 0 to 25%. Regarding `COc1ncc(F)c(N)n1` [Compound 850], the pest or weed control at 50 ppm is 0 to 25% and the pest or weed control at 200 ppm was 51 to 75%. The corresponding values for `Fc1ccc(COc2ncc(F)c(NCc3ccc(Cl)cc3)n2)cc1F` [Compound 851] are 76 to 100% and 76 to 100%. In turn, `Fc1ccccc1COc1ncc(F)c(NC2CC2)n1` [Compound 852] showed a pest or weed control at 50 ppm of 51 to 75% and a pest or weed control at 200 ppm of 76 to 100%.

For `CCOc1ncc(F)c(N)n1` [Compound 853], the pest or weed control at 50 ppm lay in the range of 0 to 25% and the pest or weed control at 200 ppm is 0 to 25%.

Compound `Cc1ccc(COc2ncc(F)c(NCc3ccc4c(c3)OCO4)n2)cc1` [Compound 854] returned a pest or weed control at 50 ppm of 51 to 75% and a pest or weed control at 200 ppm of 76 to 100%. `Fc1cnc(OCc2ccc(OC(F)(F)F)cc2)nc1NC1CC1` [Compound 855] showed a pest or weed control at 200 ppm of 76 to 100%. Still for that read-out and setting: for `Nc1nc(OCc2ccncc2)ncc1F` [Compound 856] the value was 76 to 100%. In turn, `Fc1cnc(OCc2ccco2)nc1NCc1ccc2c(c1)OCO2` [Compound 859] gave a pest or weed control at 50 ppm of 76 to 100% and a pest or weed control at 200 ppm of 76 to 100%.

`Fc1cnc(OCC(F)(F)F)nc1NCCc1ccccc1` [Compound 861] gave a pest or weed control at 50 ppm of 0 to 25% and a pest or weed control at 200 ppm of 26 to 50%. The corresponding values for `Fc1cnc(OCCc2ccccc2)nc1NCCc1ccccc1` [Compound 862] are 51 to 75% and 76 to 100%. For `Fc1ccccc1CNc1nc(OCc2ccc(Cl)cc2Cl)ncc1F` [Compound 863], in that order: 76 to 100% and 76 to 100%. Regarding `Nc1nc(OCC(F)(F)F)ncc1F` [Compound 864], the pest or weed control at 50 ppm was in the range of 0 to 25% and the pest or weed control at 200 ppm lay within 26 to 50%. `COc1ccccc1COc1ncc(F)c(NCc2ccccc2F)n1` [Compound 865] yielded a pest or weed control at 50 ppm of 26 to 50% and a pest or weed control at 200 ppm of 76 to 100%. For `Fc1cnc(OCc2cccs2)nc1NC1CC1` [Compound 866], in that order: 0 to 25% and 76 to 100%.

Turning to `Fc1ccc(COc2ncc(F)c(NCc3cccs3)n2)cc1` [Compound 867], the pest or weed control at 50 ppm was 76 to 100% and the pest or weed control at 200 ppm is 76 to 100%.

Regarding `Fc1cnc(OCc2cc(Cl)cc(Cl)c2)nc1NCc1ccc(Cl)cc1` [Compound 868], the pest or weed control at 50 ppm lay within 51 to 75% and the pest or weed control at 200 ppm was in the range of 76 to 100%. `COc1ccccc1COc1ncc(F)c(NCc2cccs2)n1` [Compound 869] came in with a pest or weed control at 200 ppm of 76 to 100%.
